# Results as given in patent US7604978B2, “Inhibition of biofilm formation” (Sequoia Sciences, Inc., priority 2004, dated 2009).
# Columns and labels:
# [1] = system: E. coli JM109 genes; experiment: DNA microarray, genes induced by asiatic acid; type: cell-based; settings: M9C glucose media
# Experimental: The same amount of ethanol was supplemented to eliminate solvent effects. The cultures were grown to an OD600 of 0.9. The cells were centrifuged in a microcentrifuge for 15 seconds at 20,000×g in mini bead beater tubes (Biospec, Bartlesville, Okla.) that were cooled to -80° C. before sampling. The cell pellets were flash frozen in a dry ice-ethanol bath and stored at -80° C. until RNA isolation. To lyse the cells, 1.0 mL RLT buffer (Qiagen, Inc., Valencia, Calif.) and 0.2 mL 0.1 mm zirconia/silica beads (Biospec) were added to the frozen bead beater tubes containing the cell pellets. The tubes were closed tightly and beat for 30 seconds at the maximum speed in a mini bead beater (cat. no. 3110BX, Biospec). The total RNA was isolated by following the protocol of the RNeasy Mini Kit (Qiagen) including an on-column DNase digestion with RNase-free DNase I (Qiagen). OD260 was used to quantify the RNA yield. OD260/OD280 and […]/16S rRNA were measured using a 2100 Bioanalyzer (Agilent Technologies, Palo Alto, Calif.) to check the purity and integrity of RNA (RNeasy Mini handbook, Qiagen). The E. coli DNA microarrays were prepared as described previously by Wei, Y. et al (Journal of Bacteriology, 2001, 183 (2) p. 545-556). […] The double-strand PCR products were denatured in 50% dimethyl sulfoxide and spotted onto aminosilane slides (Full Moon Biosystems, Sunnyvale, Calif.) as probes to hybridize with the mRNA-derived cDNA samples. It has been shown that each array can detect 4228 of the 4290 E. coli ORFs. Each gene has two spots per slide. Briefly, the total RNA from the E. coli K12 samples grown with and without ursolic acid was first converted into labeled cDNA. […] The Cy3-labeled sample without ursolic acid and the Cy5-labeled ursolic acid sample (with 10 or 30 μg/mL ursolic acid) were hybridized on the first slide. Similarly, the Cy5-labeled sample without ursolic acid and the Cy3-labeled ursolic acid sample were hybridized on the second slide. Since each gene has two spots on a slide, the two hybridizations generated eight data points for each gene (four points for the sample without ursolic acid and four points for the ursolic acid sample). The microarray experiments with dye-swapping were repeated for both concentrations of ursolic acid. […] The arrays were rinsed with double-distilled water and were spun dry by centrifugation. Labeled cDNA (6 μg) was concentrated to 10 μl of total volume and was mixed with 10 μl of 4×cDNA hybridization solution (Full Moon Biosystems) and 20 μl of formamide (EM Science, Gibbstown, N.J.). The hybridization mix was heated to 95° C. for 2 min and was added to the DNA microarrays; each array was covered with a coverslip (Corning, Big Flats, N.Y.) and was incubated overnight at 37° C. for hybridization. When the hybridization was finished, the coverslips were removed in 1×SSC-0.1% SDS at room temperature, and the arrays were washed once for 5 min in 1×SSC-0.1% SDS at 40° C., twice for 10 min in 0.1×SSC-0.1% SDS at 40° C., and twice for 1 min in 0.1×SSC at 40° C. The arrays were quickly rinsed by dipping in room-temperature double-distilled water and were then spun dry by centrifugation. The hybridized slides were scanned with the Generation III Array Scanner (Molecular Dynamics Corp.). Readings at 570 and 670 nm was used to quantify the probes labeled with Cy3 and Cy5 separately. The signal was quantified with Array Vision 4.0 or 6.0 software (Imaging Research, St. Catherines, Ontario, Canada). […] P-values were calculated on log-transformed, normalized intensities. Including the p-value criterion ensures the reliability of the induced/repressed gene list. Normalization was relative to the median total fluorescent intensity per slide per channel. Example 3 was repeated, except asiatic acid ([…]) was added instead of ursolic acid.
# [2] = system: E. coli JM109; experiment: Biofilm inhibition by asiatic acid; type: cell-based; settings: Escherichia coli, JM 109, E. coli JM109, MC9 glucose media
# Experimental: Inhibition of biofilm formation by E. coli K12 [R1drd19], P. aeruginosa PAO1, and V harveyi BB120 by the addition of 10 μg/mL ursolic acid. For E. coli K12 [R1drd19], data were collected 16 hours after addition of ursolic acid to a 24 hour biofilm in LB medium; for P. aeruginosa PAO1, data were collected 18 hours after addition of ursolic acid with inoculation in LB medium plus 1% sodium citrate; and for V. harveyi BB120, data were collected 18 hours after addition of ursolic acid with inoculation in M9 medium. All biofilm mass readings at OD540 were normalized based on the reading of wild type without ursolic acid which was normalized to 1. One standard deviation is shown.
# Example 1 was repeated, except asiatic acid was added with inoculation in E. coli JM109 in MC9 glucose media.
smiles,measurement,setting,value
C[C@H]1[C@H](C)CC[C@]2(C(=O)O)CC[C@]3(C)C(=CC[C@@H]4[C@@]5(C)C[C@@H](O)[C@H](O)[C@@](C)(CO)[C@@H]5CC[C@]43C)[C@H]12 [asiatic acid],ER (expression ratio) gene b0829,[1]; 10 μg/mL asiatic acid,2.83
same,ER (expression ratio) gene b1729,[1]; 10 μg/mL asiatic acid,2.64
same,ER (expression ratio) gene b1963,[1]; 10 μg/mL asiatic acid,2.14
same,ER (expression ratio) gene b2332,[1]; 10 μg/mL asiatic acid,2.14
same,ER (expression ratio) gene b2420,[1]; 10 μg/mL asiatic acid,4.29
same,ER (expression ratio) gene b2531,[1]; 10 μg/mL asiatic acid,2.46
same,ER (expression ratio) gene b2670,[1]; 10 μg/mL asiatic acid,3.25
same,ER (expression ratio) gene b2834,[1]; 10 μg/mL asiatic acid,2.30
same,ER (expression ratio) gene bolA,[1]; 10 μg/mL asiatic acid,2.30
same,ER (expression ratio) gene cbl,[1]; 10 μg/mL asiatic acid,13.93
same,ER (expression ratio) gene cysA,[1]; 10 μg/mL asiatic acid,4.00
same,ER (expression ratio) gene cysB,[1]; 10 μg/mL asiatic acid,6.06
same,ER (expression ratio) gene cysC,[1]; 10 μg/mL asiatic acid,10.56
same,ER (expression ratio) gene cysD,[1]; 10 μg/mL asiatic acid,6.96
same,ER (expression ratio) gene cysH,[1]; 10 μg/mL asiatic acid,4.59
same,ER (expression ratio) gene cysI,[1]; 10 μg/mL asiatic acid,4.29
same,ER (expression ratio) gene cysJ,[1]; 10 μg/mL asiatic acid,3.73
same,ER (expression ratio) gene cysK,[1]; 10 μg/mL asiatic acid,4.59
same,ER (expression ratio) gene cysM,[1]; 10 μg/mL asiatic acid,3.73
same,ER (expression ratio) gene cysN,[1]; 10 μg/mL asiatic acid,11.31
same,ER (expression ratio) gene cysP,[1]; 10 μg/mL asiatic acid,4.29
same,ER (expression ratio) gene cysU,[1]; 10 μg/mL asiatic acid,4.92
same,ER (expression ratio) gene cysW,[1]; 10 μg/mL asiatic acid,4.59
same,ER (expression ratio) gene dgt,[1]; 10 μg/mL asiatic acid,2.14
same,ER (expression ratio) gene fliY,[1]; 10 μg/mL asiatic acid,4.00
same,ER (expression ratio) gene ftn,[1]; 10 μg/mL asiatic acid,3.25
same,ER (expression ratio) gene glgS,[1]; 10 μg/mL asiatic acid,2.14
same,ER (expression ratio) gene iIvG_1,[1]; 10 μg/mL asiatic acid,2.83
same,ER (expression ratio) gene iIvL,[1]; 10 μg/mL asiatic acid,2.30
same,ER (expression ratio) gene msrA,[1]; 10 μg/mL asiatic acid,2.30
same,ER (expression ratio) gene nlpA,[1]; 10 μg/mL asiatic acid,18.38
same,ER (expression ratio) gene pssR,[1]; 10 μg/mL asiatic acid,2.46
same,ER (expression ratio) gene pstS,[1]; 10 μg/mL asiatic acid,2.64
same,ER (expression ratio) gene sbp,[1]; 10 μg/mL asiatic acid,18.38
same,ER (expression ratio) gene tauA,[1]; 10 μg/mL asiatic acid,2.46
same,ER (expression ratio) gene yaeG,[1]; 10 μg/mL asiatic acid,4.59
same,ER (expression ratio) gene yaiB,[1]; 10 μg/mL asiatic acid,2.30
same,ER (expression ratio) gene ybgR,[1]; 10 μg/mL asiatic acid,2.46
same,ER (expression ratio) gene ybiK,[1]; 10 μg/mL asiatic acid,6.50
same,ER (expression ratio) gene yciW,[1]; 10 μg/mL asiatic acid,3.03
same,ER (expression ratio) gene yedO,[1]; 10 μg/mL asiatic acid,3.73
same,ER (expression ratio) gene yeeD,[1]; 10 μg/mL asiatic acid,3.73
same,ER (expression ratio) gene yeeE,[1]; 10 μg/mL asiatic acid,3.25
same,ER (expression ratio) gene ygbE,[1]; 10 μg/mL asiatic acid,6.96
same,ER (expression ratio) gene yicG,[1]; 10 μg/mL asiatic acid,2.83
same,ER (expression ratio) gene yicL,[1]; 10 μg/mL asiatic acid,6.50
same,ER (expression ratio) gene yjaE,[1]; 10 μg/mL asiatic acid,2.00
same,ER (expression ratio) gene yjiD,[1]; 10 μg/mL asiatic acid,7.46
same,ER (expression ratio) gene yrbL,[1]; 10 μg/mL asiatic acid,2.64
same,ER (expression ratio) gene b0829,[1]; 30 μg/mL asiatic acid,2.46
same,ER (expression ratio) gene b1729,[1]; 30 μg/mL asiatic acid,2.30
same,ER (expression ratio) gene b1963,[1]; 30 μg/mL asiatic acid,2.30
same,ER (expression ratio) gene b2332,[1]; 30 μg/mL asiatic acid,2.30
same,ER (expression ratio) gene b2420,[1]; 30 μg/mL asiatic acid,2.14
same,ER (expression ratio) gene b2531,[1]; 30 μg/mL asiatic acid,2.14
same,ER (expression ratio) gene b2670,[1]; 30 μg/mL asiatic acid,2.64
same,ER (expression ratio) gene b2834,[1]; 30 μg/mL asiatic acid,2.00
same,ER (expression ratio) gene bolA,[1]; 30 μg/mL asiatic acid,2.64
same,ER (expression ratio) gene cbl,[1]; 30 μg/mL asiatic acid,13.00
same,ER (expression ratio) gene cysA,[1]; 30 μg/mL asiatic acid,3.48
same,ER (expression ratio) gene cysB,[1]; 30 μg/mL asiatic acid,4.29
same,ER (expression ratio) gene cysC,[1]; 30 μg/mL asiatic acid,6.96
same,ER (expression ratio) gene cysD,[1]; 30 μg/mL asiatic acid,6.50
same,ER (expression ratio) gene cysH,[1]; 30 μg/mL asiatic acid,3.03
same,ER (expression ratio) gene cysI,[1]; 30 μg/mL asiatic acid,3.25
same,ER (expression ratio) gene cysJ,[1]; 30 μg/mL asiatic acid,4.00
same,ER (expression ratio) gene cysK,[1]; 30 μg/mL asiatic acid,3.48
same,ER (expression ratio) gene cysM,[1]; 30 μg/mL asiatic acid,3.25
same,ER (expression ratio) gene cysN,[1]; 30 μg/mL asiatic acid,7.46
same,ER (expression ratio) gene cysP,[1]; 30 μg/mL asiatic acid,4.92
same,ER (expression ratio) gene cysU,[1]; 30 μg/mL asiatic acid,4.92
same,ER (expression ratio) gene cysW,[1]; 30 μg/mL asiatic acid,4.00
same,ER (expression ratio) gene dgt,[1]; 30 μg/mL asiatic acid,2.30
same,ER (expression ratio) gene fliY,[1]; 30 μg/mL asiatic acid,3.25
same,ER (expression ratio) gene ftn,[1]; 30 μg/mL asiatic acid,3.03
same,ER (expression ratio) gene glgS,[1]; 30 μg/mL asiatic acid,2.30
same,ER (expression ratio) gene iIvG_1,[1]; 30 μg/mL asiatic acid,2.00
same,ER (expression ratio) gene iIvL,[1]; 30 μg/mL asiatic acid,3.48
same,ER (expression ratio) gene msrA,[1]; 30 μg/mL asiatic acid,2.64
same,ER (expression ratio) gene nlpA,[1]; 30 μg/mL asiatic acid,9.85
same,ER (expression ratio) gene pssR,[1]; 30 μg/mL asiatic acid,2.14
same,ER (expression ratio) gene pstS,[1]; 30 μg/mL asiatic acid,2.00
same,ER (expression ratio) gene sbp,[1]; 30 μg/mL asiatic acid,12.13
same,ER (expression ratio) gene tauA,[1]; 30 μg/mL asiatic acid,2.00
same,ER (expression ratio) gene yaeG,[1]; 30 μg/mL asiatic acid,4.00
same,ER (expression ratio) gene yaiB,[1]; 30 μg/mL asiatic acid,2.64
same,ER (expression ratio) gene ybgR,[1]; 30 μg/mL asiatic acid,2.46
same,ER (expression ratio) gene ybiK,[1]; 30 μg/mL asiatic acid,5.66
same,ER (expression ratio) gene yciW,[1]; 30 μg/mL asiatic acid,3.73
same,ER (expression ratio) gene yedO,[1]; 30 μg/mL asiatic acid,2.83
same,ER (expression ratio) gene yeeD,[1]; 30 μg/mL asiatic acid,2.30
same,ER (expression ratio) gene yeeE,[1]; 30 μg/mL asiatic acid,2.14
same,ER (expression ratio) gene ygbE,[1]; 30 μg/mL asiatic acid,5.28
same,ER (expression ratio) gene yicG,[1]; 30 μg/mL asiatic acid,2.30
same,ER (expression ratio) gene yicL,[1]; 30 μg/mL asiatic acid,2.83
same,ER (expression ratio) gene yjaE,[1]; 30 μg/mL asiatic acid,2.14
same,ER (expression ratio) gene yjiD,[1]; 30 μg/mL asiatic acid,9.85
same,ER (expression ratio) gene yrbL,[1]; 30 μg/mL asiatic acid,2.46
same,inhibition at 5 µg/mL,[2]; 5 μg/ml,~75%
same,inhibition at 10 µg/mL,[2]; 10 μg/ml,~80%
same,inhibition at 15 µg/mL,[2]; 15 μg/ml,~85%
